Consider 14 molecules from ChEMBL document CHEMBL3864159, “Variation of the aryl substituent on the piperazine ring within the 4-(piperazin-1-yl)-2,6-di(pyrrolidin-1-yl)pyrimidine scaffold unveils potent, non-competitive inhibitors of the inflammatory caspases” (Bioorg Med Chem Lett, 2016).

For orientation: IC50 means the concentration that inhibits the measured activity by half.

Test [1] deals with T1, Caspase-5 (Homo sapiens, UniProt P51878).
T1 sequence (P51878 whole entry): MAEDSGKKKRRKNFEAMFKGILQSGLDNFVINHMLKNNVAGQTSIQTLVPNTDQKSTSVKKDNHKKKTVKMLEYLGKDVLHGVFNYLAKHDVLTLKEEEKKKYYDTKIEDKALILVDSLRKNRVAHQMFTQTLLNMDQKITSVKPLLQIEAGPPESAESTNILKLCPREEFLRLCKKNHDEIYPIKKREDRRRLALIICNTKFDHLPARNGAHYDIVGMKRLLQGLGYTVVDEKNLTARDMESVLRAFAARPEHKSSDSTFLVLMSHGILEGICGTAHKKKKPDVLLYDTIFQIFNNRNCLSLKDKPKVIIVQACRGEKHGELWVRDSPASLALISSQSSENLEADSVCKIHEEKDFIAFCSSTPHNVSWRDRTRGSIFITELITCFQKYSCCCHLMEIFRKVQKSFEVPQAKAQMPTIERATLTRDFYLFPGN
Kind of test: Inhibition of human recombinant DTT-activated caspase-5 expressed in Escherichia coli using Ac-WEHD-AMC as substrate preincubated for 30 mins followed by substrate addition by fluorescence assay.

In the next test the target is T2, Caspase-4 (Homo sapiens, UniProt P49662).
T2 sequence (P49662 whole entry): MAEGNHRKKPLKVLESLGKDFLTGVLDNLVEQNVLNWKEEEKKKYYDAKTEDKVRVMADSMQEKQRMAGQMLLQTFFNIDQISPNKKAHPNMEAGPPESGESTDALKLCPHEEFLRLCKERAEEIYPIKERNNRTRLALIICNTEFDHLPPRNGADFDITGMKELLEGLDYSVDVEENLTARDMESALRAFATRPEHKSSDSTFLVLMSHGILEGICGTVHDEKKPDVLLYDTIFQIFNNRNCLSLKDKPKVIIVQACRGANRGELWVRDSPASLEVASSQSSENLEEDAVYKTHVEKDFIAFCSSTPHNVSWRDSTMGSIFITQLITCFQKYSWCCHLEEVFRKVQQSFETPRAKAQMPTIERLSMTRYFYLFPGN
Kind of test: Inhibition of human recombinant N-terminal His-tagged DTT-activated caspase-4 expressed in Escherichia coli using Ac-LEVD-AMC as substrate preincubated for 30 mins followed by substrate addition by fluorescence assay.

Test [2] has as its target T3, Caspase-1 (Homo sapiens, UniProt P29466).
T3 sequence (P29466 whole entry): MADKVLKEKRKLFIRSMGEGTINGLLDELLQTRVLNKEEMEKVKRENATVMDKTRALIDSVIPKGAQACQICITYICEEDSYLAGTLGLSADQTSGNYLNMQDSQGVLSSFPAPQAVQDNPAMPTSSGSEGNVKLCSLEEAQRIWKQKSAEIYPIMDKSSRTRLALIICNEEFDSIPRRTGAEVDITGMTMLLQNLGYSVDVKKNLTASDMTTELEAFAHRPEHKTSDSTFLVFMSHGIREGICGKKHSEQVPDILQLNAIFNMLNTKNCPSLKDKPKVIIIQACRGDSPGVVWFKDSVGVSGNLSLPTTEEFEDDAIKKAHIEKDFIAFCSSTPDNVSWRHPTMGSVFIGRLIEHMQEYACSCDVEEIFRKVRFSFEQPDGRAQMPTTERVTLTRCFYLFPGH
Kind of test: Inhibition of human recombinant N-terminal His-tagged DTT-activated caspase-1 expressed in Escherichia coli using Ac-WEHD-AMC as substrate preincubated for 30 mins followed by substrate addition by fluorescence assay.

Test [3] deals with T1, Caspase-5. Kind of test: Inhibition of human recombinant DTT-activated caspase-5 expressed in Escherichia coli using Ac-WEHD-AMC as substrate preincubated for 45 mins followed by substrate addition by fluorescence assay.
Test [4] has as its target T1, Caspase-5. Kind of test: Inhibition of human recombinant DTT-activated caspase-5 expressed in Escherichia coli using Ac-WEHD-AMC as substrate preincubated for 15 mins followed by substrate addition by fluorescence assay.
The target in test [5] is T3, Caspase-1. Put plainly: Inhibition of human recombinant DTT-activated caspase-1 expressed in Escherichia coli using WEHD-AMC as substrate after 30 mins by fluorescence assay. The conditions noted are these: read-out: Ki(app).

Consider `O=[N+]([O-])c1ccc(CN2CCN(c3cc(N4CCCC4)nc(N4CCCC4)n3)CC2)cc1`, for which the IC50 was found to be 430 nM on Caspase-5 [1], 580 nM at Caspase-4 and 450 nM at Caspase-1 [2]. Moreover, the Ki at Caspase-5 [1] is 99 nM; at Caspase-4, 215 nM; at Caspase-1 [2], 129 nM.
With `COc1cc(CN2CCN(c3cc(N4CCCC4)nc(N4CCCC4)n3)CC2)cc(OC)c1`, the IC50 on Caspase-5 [1] was 149 nM; on Caspase-4, 400 nM; at Caspase-1 [2], 173 nM. Also, the Ki on Caspase-5 [1] was found to be 34 nM; at Caspase-4, 148 nM; at Caspase-1 [2], 49 nM.
As for `c1c(N2CCCC2)nc(N2CCCC2)nc1N1CCNCC1`, the IC50 is 205 nM on Caspase-5 [1], 560 nM on Caspase-4 and 455 nM on Caspase-1 [2]. The Ki was 47 nM at Caspase-5 [1], 207 nM at Caspase-4 and 130 nM on Caspase-1 [2].
With `c1cncc(CN2CCN(c3cc(N4CCCC4)nc(N4CCCC4)n3)CC2)c1`, the half-inhibitory concentration (IC50) amounted to 254 nM at Caspase-5 [1]; 2350 nM on Caspase-4; 155 nM on Caspase-5 [3]; 1870 nM at Caspase-1 [2]; 2560 nM on Caspase-5 [4]. For the same molecule, the Ki was 59 nM at Caspase-5 [1], 870 nM on Caspase-4 and 534 nM at Caspase-1 [2].
Take `c1ccc(CN2CCN(c3cc(N4CCCC4)nc(N4CCCC4)n3)CC2)cc1`: the figures for the concentration for half-maximal inhibition (IC50) on Caspase-5 [1], on Caspase-4 and at Caspase-1 [2] were 178 nM, > 5000 nM and 700 nM, respectively. The Ki was found to be 41 nM at Caspase-5 [1] and 200 nM on Caspase-1 [2].
On to `O=[N+]([O-])c1ccccc1CN1CCN(c2cc(N3CCCC3)nc(N3CCCC3)n2)CC1`, for which the results for the IC50 on Caspase-5 [1], on Caspase-4 and on Caspase-1 [2] were 105 nM, 721 nM and 796 nM, respectively. Also, the Ki on Caspase-5 [1] was determined as 24 nM; at Caspase-4 it was 267 nM; on Caspase-1 [2], 227 nM.
`c1c(N2CCCC2)nc(N2CCCC2)nc1N1CCN(CC2CCCCC2)CC1`: the IC50 at Caspase-5 [1] was found to be 254 nM; on Caspase-4, 826 nM; at Caspase-1 [2], 95 nM. Further, the Ki is 59 nM on Caspase-5 [1], 306 nM at Caspase-4 and 27 nM at Caspase-1 [2].
Regarding `C[C@]12C=CC(=O)C=C1CC[C@@H]1C2=CC[C@]2(C)[C@@H](C(=O)CN3CCN(c4cc(N5CCCC5)nc(N5CCCC5)n4)CC3)CC[C@@H]12`, the IC50 at Caspase-5 [1] is 910 nM; on Caspase-4, 909 nM. Further, the Ki on Caspase-5 [1] is 210 nM; on Caspase-4, 337 nM; on Caspase-1 [2], 50 nM; at Caspase-1 [5], 50 nM.
Turning to `c1ccc(CCN2CCN(c3cc(N4CCCC4)nc(N4CCCC4)n3)CC2)cc1`, the values for the half-maximal inhibitory concentration (IC50) on Caspase-5 [1], on Caspase-4 and on Caspase-1 [2] were 71 nM, 21 nM and 56 nM, respectively. Also, the Ki was determined as 16 nM on Caspase-5 [1], 8 nM at Caspase-4 and 16 nM on Caspase-1 [2].
Take `FC(F)(F)c1cc(CN2CCN(c3cc(N4CCCC4)nc(N4CCCC4)n3)CC2)cc(C(F)(F)F)c1`: the IC50 was 210 nM at Caspase-5 [1], > 5000 nM on Caspase-4 and 706 nM at Caspase-1 [2]. Also, the figures for the Ki at Caspase-5 [1] and on Caspase-1 [2] were 48 nM and 202 nM, respectively.
For the molecule `O=C(c1ccccc1)c1ccc(CN2CCN(c3cc(N4CCCC4)nc(N4CCCC4)n3)CC2)cc1`, the half-inhibitory concentration (IC50) at Caspase-5 [1] turned out to be 123 nM; at Caspase-4, 320 nM; at Caspase-1 [2], 205 nM. Besides, the Ki came to 28 nM on Caspase-5 [1], 119 nM on Caspase-4 and 59 nM on Caspase-1 [2].
Regarding `c1cc(CN2CCN(c3cc(N4CCCC4)nc(N4CCCC4)n3)CC2)ccn1`, the IC50 on Caspase-5 [1] was found to be 146 nM; on Caspase-4 it was 1060 nM; at Caspase-1 [2] it was 1060 nM. The Ki on Caspase-5 [1] worked out at 34 nM; at Caspase-4, 393 nM; on Caspase-1 [2], 303 nM.
Regarding `COc1cccc(CN2CCN(c3cc(N4CCCC4)nc(N4CCCC4)n3)CC2)c1`, the IC50 on Caspase-5 [1] was found to be 482 nM; at Caspase-4 it was 746 nM; on Caspase-1 [2] it was 262 nM. In addition, the Ki on Caspase-5 [1] was 111 nM; at Caspase-4, 276 nM; on Caspase-1 [2] it was 75 nM.
Consider `FC(F)(F)c1ccc(CN2CCN(c3cc(N4CCCC4)nc(N4CCCC4)n3)CC2)cc1`, for which the IC50 on Caspase-5 [1] worked out at 586 nM; at Caspase-4 it was 1520 nM; on Caspase-1 [2] it was 639 nM. Besides, the figures for the Ki at Caspase-5 [1], at Caspase-4 and on Caspase-1 [2] were 135 nM, 563 nM and 183 nM, respectively.
